Results on 8 molecules are retold here after paper PMC11767490, “A Bis-Glycosylamine Strategy for the Synthesis of Dimeric Iminosugars Based on a DAB-1 Scaffold” (Molecules, 2025).

pIC50: −log10 of the molar value. Read-outs that look alike come from different tables or passages of the source. Marks after values point to notes of the source that are not given here.

The target of one assay is T1, α-glucosidase (rice) (Oryza sativa subsp. japonica, UniProt Q653V7).
T1 construct: purchased Sigma Chemical Co
As to the kind of experiment: glycosidase inhibition assay, α-glucosidase from rice. The class given is biochemical. Particulars: for inhibition at 1000 µM: pH 5.1, 1 mM inhibitor, pH 5.1, p-nitrophenyl glycoside 1 mM, read-out: % inhibition at 1 mM concentration of inhibitor. The method, then: (§1) A prepared sample of DAB-1 8 was also tested under the same conditions for ease of comparison. A first set of biological assays was effected at 1 mM concentration of inhibitor. […] Former results from our laboratories have always followed this empirical rule.
(§2) All the enzymes were purchased from Sigma Chemical Co. In a typical experiment, the glycosidase (0.013 U/mL) was pre-incubated at 33 °C for 5 min in the presence of the inhibitor in 50 mM acetate buffer (pH 5.6, except for rice α-glucosidase pH 5.1 and yeast α-glucosidase pH 6.2). The reaction was started by the addition of the appropriate substrate (p-nitrophenyl glycoside, 1 mM concentration) to a final volume of 250 µL. The reaction was stopped after 10–15 min (depending on the enzyme) by the addition of 350 µL of 0.4 M Na2CO3. The released p-nitrophenolate was quantified spectrophotometrically at 415 nm with a microplate reader (300 µL of the reaction mixture per well). […] All the assays were performed in duplicate (less than 10% variability in each case).

In assay [1] the target is T2, α-glucosidase (Sac. cerevisiae) (Saccharomyces cerevisiae, UniProt P53341).
T2 construct: purchased Sigma Chemical Co
As to the kind of experiment: glycosidase inhibition assay, α-glucosidase from yeast. Particulars: for inhibition at 1000 µM: pH 6.2, read-out: % inhibition at 1 mM concentration of inhibitor, 1 mM inhibitor, negative values mean activation. The class given is biochemical. The method, then: as §1, §2

A further assay has as its system β-glucosidase (almond). The assay is described as follows: glycosidase inhibition assay, β-glucosidase from almond. The class given is biochemical. Particulars: pH 5.6; for % inhibition at 1 mM concentration of inhibitor: 1 mM inhibitor. The method, then:
as §1, §2

In assay [2] the target is T3, β-glucosidase (Asp. niger) (Aspergillus niger, UniProt A2RAL4).
T3 construct: purchased Sigma Chemical Co
The assay is described as follows: glycosidase inhibition assay, β-glucosidase from A. niger. It counts as biochemical. To be noted: for inhibition at 1000 µM: pH 5.6, 1 mM inhibitor, pH 5.6, read-out: % inhibition at 1 mM concentration of inhibitor. The method, then: as §1, §2

The target of assay [3] is T4, β-galactosidase (Asp. orizae) (Aspergillus oryzae, UniProt Q2UCU3).
T4 construct: purchased Sigma Chemical Co
T4 sequence (Q2UCU3 19-1005): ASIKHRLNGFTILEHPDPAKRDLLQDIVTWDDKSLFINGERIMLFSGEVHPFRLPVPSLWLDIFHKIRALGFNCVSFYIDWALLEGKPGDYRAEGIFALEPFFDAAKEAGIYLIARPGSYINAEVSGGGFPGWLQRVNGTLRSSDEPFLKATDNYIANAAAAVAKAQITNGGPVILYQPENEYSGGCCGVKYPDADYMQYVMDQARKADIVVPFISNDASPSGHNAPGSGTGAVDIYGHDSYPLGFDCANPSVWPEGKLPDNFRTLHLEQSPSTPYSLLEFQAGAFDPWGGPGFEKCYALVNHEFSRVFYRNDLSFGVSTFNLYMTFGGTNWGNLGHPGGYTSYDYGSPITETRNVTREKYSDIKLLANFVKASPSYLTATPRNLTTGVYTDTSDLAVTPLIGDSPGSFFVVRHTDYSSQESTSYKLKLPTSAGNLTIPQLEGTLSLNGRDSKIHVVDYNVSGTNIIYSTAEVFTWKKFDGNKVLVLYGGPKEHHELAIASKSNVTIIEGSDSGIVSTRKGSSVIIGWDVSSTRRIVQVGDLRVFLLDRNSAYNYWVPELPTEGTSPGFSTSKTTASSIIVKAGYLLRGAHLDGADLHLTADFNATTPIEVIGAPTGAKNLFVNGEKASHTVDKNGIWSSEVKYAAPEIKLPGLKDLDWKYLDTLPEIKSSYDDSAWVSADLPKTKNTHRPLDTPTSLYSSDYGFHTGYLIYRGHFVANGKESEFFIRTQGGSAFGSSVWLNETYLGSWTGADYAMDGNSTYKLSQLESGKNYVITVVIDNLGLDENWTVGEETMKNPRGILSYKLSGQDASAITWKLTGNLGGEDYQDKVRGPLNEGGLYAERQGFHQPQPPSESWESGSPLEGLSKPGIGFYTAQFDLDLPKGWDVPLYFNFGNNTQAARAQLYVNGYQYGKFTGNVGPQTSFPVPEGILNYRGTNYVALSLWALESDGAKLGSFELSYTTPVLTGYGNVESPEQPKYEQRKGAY
As to the kind of experiment: glycosidase inhibition assay, β-galactosidase from A. orizae. Particulars: for inhibition at 1000 µM: pH 5.6, read-out: % inhibition at 1 mM concentration of inhibitor; for pIC50: pH 5.6. The class given is biochemical. The method, then: as §1, §2

Assay [4] has as its target T5, α-mannosidase (Jack bean) (Canavalia ensiformis, UniProt C0HJB3).
T5 construct: purchased Sigma Chemical Co
T5 sequence (C0HJB3 1-981): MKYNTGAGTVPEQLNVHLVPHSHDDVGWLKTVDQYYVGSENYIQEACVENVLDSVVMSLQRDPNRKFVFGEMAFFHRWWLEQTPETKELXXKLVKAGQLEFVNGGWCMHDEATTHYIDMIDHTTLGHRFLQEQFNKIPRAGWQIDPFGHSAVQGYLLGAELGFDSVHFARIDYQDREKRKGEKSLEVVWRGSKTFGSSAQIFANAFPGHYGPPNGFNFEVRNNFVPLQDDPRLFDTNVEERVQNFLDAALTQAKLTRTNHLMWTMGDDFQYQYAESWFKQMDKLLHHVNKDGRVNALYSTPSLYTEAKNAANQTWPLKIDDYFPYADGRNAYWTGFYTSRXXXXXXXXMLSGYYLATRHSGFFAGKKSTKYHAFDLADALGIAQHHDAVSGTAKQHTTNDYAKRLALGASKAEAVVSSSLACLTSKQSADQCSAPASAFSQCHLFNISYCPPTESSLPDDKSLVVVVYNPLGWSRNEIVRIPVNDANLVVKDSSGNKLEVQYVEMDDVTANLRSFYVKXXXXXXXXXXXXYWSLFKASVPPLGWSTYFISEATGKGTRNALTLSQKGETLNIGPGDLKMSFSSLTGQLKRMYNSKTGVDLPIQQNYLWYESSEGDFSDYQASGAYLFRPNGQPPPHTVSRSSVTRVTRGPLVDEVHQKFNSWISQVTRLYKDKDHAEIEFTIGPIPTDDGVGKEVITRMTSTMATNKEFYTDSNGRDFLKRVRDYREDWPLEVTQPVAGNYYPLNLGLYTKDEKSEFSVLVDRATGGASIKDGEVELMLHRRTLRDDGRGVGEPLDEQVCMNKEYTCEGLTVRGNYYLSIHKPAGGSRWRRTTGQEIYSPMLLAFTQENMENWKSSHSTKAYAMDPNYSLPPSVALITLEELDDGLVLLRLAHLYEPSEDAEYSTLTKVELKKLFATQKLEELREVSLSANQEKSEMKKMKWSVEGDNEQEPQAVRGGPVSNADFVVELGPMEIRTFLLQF
As to the kind of experiment: glycosidase inhibition assay, α-mannosidase from Jack bean. The class given is biochemical. The method, then:
as §1, §2

Assay [5] concerns α-rhamnosidase (Asp. niger). As to the kind of experiment: glycosidase inhibition assay, α-rhamnosidase from A. niger. The class given is biochemical. To be noted: 1 mM inhibitor; pH 5.6. The method, then: as §1, §2
The target in assay [6] is T6, α-galactosidase (green coffee) (Coffea arabica, UniProt Q42656).
T6 construct: purchased Sigma Chemical Co
The assay is described as follows: glycosidase inhibition assay, α-galactosidase from green coffee bean. It counts as biochemical. Particulars: 1 mM inhibitor; pH 5.6; read-out: % inhibition at 1 mM concentration of inhibitor. The method, then:
as §1, §2

The next assay has as its system β-GlcNAc-ase (Jack bean). The assay is described as follows: glycosidase inhibition assay, β-N-acetylglucosaminidase from Jack bean. It counts as biochemical. To be noted: for % inhibition at 1 mM concentration of inhibitor: 1 mM inhibitor, pH 5.6, negative values mean activation; for activation of enzyme activity: 1 mM compound. The method, then: as §1, §2
A further assay concerns the target fucosidase. Also noted: method as in PMID 27138139. Particulars: cited from earlier work.
Setting [7] is: pH 5.6, read-out: % inhibition at 1 mM concentration of inhibitor.
The mark [8] stands for this setting: 1 mM inhibitor, pH 5.6, read-out: % inhibition at 1 mM concentration of inhibitor.

T3 sequence (A2RAL4 20-860): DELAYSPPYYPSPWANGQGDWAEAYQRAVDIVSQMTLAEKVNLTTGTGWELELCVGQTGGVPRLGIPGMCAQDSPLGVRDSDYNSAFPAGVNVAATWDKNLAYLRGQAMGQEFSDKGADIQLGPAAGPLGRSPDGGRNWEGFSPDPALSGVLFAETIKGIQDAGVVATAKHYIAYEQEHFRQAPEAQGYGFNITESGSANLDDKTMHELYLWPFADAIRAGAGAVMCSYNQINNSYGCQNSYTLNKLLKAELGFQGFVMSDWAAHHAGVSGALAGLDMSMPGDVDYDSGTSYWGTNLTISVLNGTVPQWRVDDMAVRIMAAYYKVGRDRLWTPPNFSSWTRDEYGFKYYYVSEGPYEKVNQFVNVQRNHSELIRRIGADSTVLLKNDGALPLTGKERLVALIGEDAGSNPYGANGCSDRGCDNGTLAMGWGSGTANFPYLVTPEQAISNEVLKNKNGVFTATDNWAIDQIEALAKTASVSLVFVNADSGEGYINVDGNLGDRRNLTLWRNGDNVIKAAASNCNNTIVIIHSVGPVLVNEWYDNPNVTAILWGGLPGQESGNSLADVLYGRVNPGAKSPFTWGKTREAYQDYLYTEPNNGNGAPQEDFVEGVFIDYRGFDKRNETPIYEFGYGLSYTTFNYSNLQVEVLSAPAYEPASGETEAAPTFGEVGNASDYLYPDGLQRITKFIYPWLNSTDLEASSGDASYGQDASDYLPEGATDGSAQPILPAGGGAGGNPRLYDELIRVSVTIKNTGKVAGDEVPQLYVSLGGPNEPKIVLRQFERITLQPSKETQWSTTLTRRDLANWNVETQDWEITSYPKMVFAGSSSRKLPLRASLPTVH
T6 sequence (Q42656 16-378): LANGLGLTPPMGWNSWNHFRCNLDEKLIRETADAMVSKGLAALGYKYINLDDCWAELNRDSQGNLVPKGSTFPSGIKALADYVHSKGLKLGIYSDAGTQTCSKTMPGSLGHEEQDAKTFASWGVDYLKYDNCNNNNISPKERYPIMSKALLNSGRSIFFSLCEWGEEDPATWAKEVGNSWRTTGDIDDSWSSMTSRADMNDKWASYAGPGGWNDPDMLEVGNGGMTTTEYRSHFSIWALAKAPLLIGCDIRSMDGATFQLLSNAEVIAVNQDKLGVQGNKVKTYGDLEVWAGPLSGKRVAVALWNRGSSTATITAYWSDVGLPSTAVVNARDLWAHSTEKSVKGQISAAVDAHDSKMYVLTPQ
T1 sequence (Q653V7 34-885): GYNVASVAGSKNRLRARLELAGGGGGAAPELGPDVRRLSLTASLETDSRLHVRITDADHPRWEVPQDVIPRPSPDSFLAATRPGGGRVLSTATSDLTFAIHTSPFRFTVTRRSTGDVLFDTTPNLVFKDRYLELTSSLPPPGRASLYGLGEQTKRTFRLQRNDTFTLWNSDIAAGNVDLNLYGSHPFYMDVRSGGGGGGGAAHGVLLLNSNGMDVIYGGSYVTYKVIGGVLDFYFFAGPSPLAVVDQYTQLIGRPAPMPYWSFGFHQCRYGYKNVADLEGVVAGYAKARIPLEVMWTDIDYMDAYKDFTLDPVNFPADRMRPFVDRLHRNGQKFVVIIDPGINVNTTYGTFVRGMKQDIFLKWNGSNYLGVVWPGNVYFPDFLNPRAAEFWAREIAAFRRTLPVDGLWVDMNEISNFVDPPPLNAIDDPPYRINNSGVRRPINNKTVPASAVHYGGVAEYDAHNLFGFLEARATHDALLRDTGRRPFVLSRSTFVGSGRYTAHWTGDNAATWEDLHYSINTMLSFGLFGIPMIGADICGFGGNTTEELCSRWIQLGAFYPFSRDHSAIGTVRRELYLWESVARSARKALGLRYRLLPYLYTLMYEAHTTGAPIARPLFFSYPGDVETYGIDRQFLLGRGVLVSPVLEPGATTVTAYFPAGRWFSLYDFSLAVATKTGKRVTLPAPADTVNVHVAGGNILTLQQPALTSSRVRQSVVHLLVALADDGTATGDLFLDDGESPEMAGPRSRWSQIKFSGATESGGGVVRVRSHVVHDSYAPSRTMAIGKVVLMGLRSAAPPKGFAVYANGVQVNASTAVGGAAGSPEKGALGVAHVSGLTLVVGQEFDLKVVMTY
T2 sequence (P53341 whole entry): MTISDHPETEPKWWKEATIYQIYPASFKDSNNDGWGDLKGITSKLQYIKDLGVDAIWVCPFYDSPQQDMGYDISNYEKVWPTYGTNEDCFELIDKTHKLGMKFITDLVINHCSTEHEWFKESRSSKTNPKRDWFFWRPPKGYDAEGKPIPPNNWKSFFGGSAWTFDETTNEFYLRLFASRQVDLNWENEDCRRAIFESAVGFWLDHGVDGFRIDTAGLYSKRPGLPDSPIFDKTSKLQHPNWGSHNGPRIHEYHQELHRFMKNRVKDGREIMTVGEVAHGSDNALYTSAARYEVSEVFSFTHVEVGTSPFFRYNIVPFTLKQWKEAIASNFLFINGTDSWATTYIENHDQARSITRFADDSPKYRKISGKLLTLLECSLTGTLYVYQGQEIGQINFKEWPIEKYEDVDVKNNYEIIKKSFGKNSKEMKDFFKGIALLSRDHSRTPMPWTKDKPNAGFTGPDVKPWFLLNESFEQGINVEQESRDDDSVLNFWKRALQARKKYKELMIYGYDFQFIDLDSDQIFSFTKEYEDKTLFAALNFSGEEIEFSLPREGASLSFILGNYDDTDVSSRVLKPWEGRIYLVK

Usually % inhibition stands for the percentage by which the read-out fell short of the control. For the molecule `OC[C@@H]1[C@@H](O)[C@H](O)CN1Cc1cccc(CN2C[C@@H](O)[C@H](O)[C@H]2CO)c1` [13a], the inhibition at 1000 µM on α-glucosidase (rice) worked out at 40%; in assay [1] (pH 6.2), 88%; in assay [2], 24%; in assay [3], 93%; in [4] (setting [7]) it was 75%; in assay [6], 38%. For the same molecule, the “% inhibition at 1 mM concentration of inhibitor” value (“% inhibition” for short) is reported as 13% in the assay on β-glucosidase (almond), 67% in assay [5] and “NI (NI means no impact on enzyme activity (less than 5% inhibition or activation))” in the assay with β-GlcNAc-ase (Jack bean).
As usually defined, the pIC50 is −log10 of the IC50, conventionally taken in molar units. In the case of `OC[C@@H]1[C@@H](O)[C@H](O)CN1Cc1ccc(CN2C[C@@H](O)[C@H](O)[C@H]2CO)cc1` [13b], the inhibition at 1000 µM on α-glucosidase (rice) was 77%; in assay [1] (pH 6.2), 95%; in [2] it was 43%; in [3], greater than 95%; in assay [4] (setting [8]), 84%; in [6], less than 5%. The values for the pIC50 in [1] and in assay [3] were 4.41 and 5.55, respectively. In addition, the results for the “% inhibition” value (in the assay with β-glucosidase (almond); in assay [5]; in the assay on β-GlcNAc-ase (Jack bean)) were 16%, 24% and “NI (NI means no impact on enzyme activity (less than 5% inhibition or activation))”, respectively.
In the case of `OC[C@@H]1[C@@H](O)[C@H](O)CN1CCOCCOCCN1C[C@@H](O)[C@H](O)[C@H]1CO` [13d], the inhibition at 1000 µM at α-glucosidase (rice) was roughly 90%; in assay [1] (pH 6.2), roughly 90%; in [2], roughly 90%; in [3], 92%; in [4] (setting [7]), 82%; in [6] it was 22%. Also, the “% inhibition” value with β-glucosidase (almond) is listed as 24%; in assay [5] it was 46%; with β-GlcNAc-ase (Jack bean), “–38% ^c”. Also, the “activation of enzyme activity” value in the assay with β-GlcNAc-ase (Jack bean) is given as 38%.
On to `OC[C@H]1NC[C@@H](O)[C@@H]1O` [DAB-1], for which the pIC50 against α-glucosidase (rice) was 5.11; in assay [1] (pH 6.2, determined when >95% inhibition at 1 mM, read-out: IC50), 6.16; against β-glucosidase (almond) it was 4.10; in assay [2], 4.21; in [4] (pH 5.6), 4.31. Also, the inhibition at 1000 µM on α-glucosidase (rice) is greater than 95%; in [1] (pH 6.2), greater than 95%; in [2], greater than 95%; in assay [3], 76%; in [4] (setting [8]) it was greater than 95%; in assay [6], 11%. The “% inhibition” value in the assay with β-glucosidase (almond) was 95%; in assay [5], 34%; with β-GlcNAc-ase (Jack bean), 14%.
Regarding `C[C@@H]1N[C@@H](CCCC[C@@H]2N[C@@H](C)[C@@H](O)[C@H]2O)[C@H](O)[C@@H]1O` [compound 6], the pIC50 at fucosidase was 6.97. Also, the “fold increase in the inhibition potency relative to the monomer” value in the assay with fucosidase (dimer vs monomer) is reported as 19 fold.
For `OC[C@@H]1[C@@H](O)[C@H](O)CN1CCCCCCCCN1C[C@@H](O)[C@H](O)[C@H]1CO` [13c], the inhibition at 1000 µM on α-glucosidase (rice) is 92%; in assay [1] (pH 6.2), 88%; in assay [2], 94%; in assay [3], greater than 95%; in assay [4] (setting [8]), greater than 95%; in [6] it was 61%. Besides, the “% inhibition” value with β-glucosidase (almond) is 60%; in assay [5], 69%; in the assay on β-GlcNAc-ase (Jack bean), “NI (NI means no impact on enzyme activity (less than 5% inhibition or activation))”. The results for the negative-log IC50 (pIC50) in assay [3] and in [4] (pH 5.6) were 4.51 and 4.74, respectively.
For the molecule `C=CC[C@@H]1[C@@H](O)[C@H](O)[C@@H](CO)N1CCOCCOCCN1[C@H](CO)[C@@H](O)[C@H](O)[C@H]1CC=C` [16d], the inhibition at 1000 µM on α-glucosidase (rice) was 26%; in assay [1] (pH 6.2), -20%; in assay [2], 51%; in [3], 58%; in [4] (setting [7]) it was 32%; in assay [6], less than 5%. Besides, in [1] (activation, 1 mM compound), the “enhancement of enzyme activity” value is 20%. For the same molecule, the results for the “% inhibition” value (with β-glucosidase (almond); in assay [5]; in the assay with β-GlcNAc-ase (Jack bean)) were 25%, 25% and “–33% ^c”, respectively. The “activation of enzyme activity” value in the assay on β-GlcNAc-ase (Jack bean) turned out to be 33%.
Regarding `OC[C@@H]1[C@@H](O)[C@H](O)CN1CCCOCCOCCOCCCN1C[C@@H](O)[C@H](O)[C@H]1CO` [13e], the inhibition at 1000 µM at α-glucosidase (rice) was 72%; in assay [1] (pH 6.2), 65%; in assay [2] it was 91%; in assay [3] it was 81%; in assay [4] (setting [8]), greater than 95%; in assay [6], 22%. Besides, the “% inhibition” value is reported as 23% in the assay on β-glucosidase (almond), 18% in assay [5] and “NI (NI means no impact on enzyme activity (less than 5% inhibition or activation))” in the assay with β-GlcNAc-ase (Jack bean). The pIC50 in [4] (pH 5.6) is 4.47.
